Source: paper PMC10251509, “Ultrafast Fragment Screening Using Photo-Hyperpolarized (CIDNP) NMR” (Journal of the American Chemical Society, 2023)

Legend:
PIN1 [1] = target: T1, PIN1 (Homo sapiens, UniProt Q13526); test: [15N,1H]-HSQC hit validation (chemical shift perturbations) on 15N-labeled PIN1; format: binding; conditions: 50 μM 15N-labeled PIN1, 200 μM fragment
T1 construct: polyhistidine (N); made in house; host or cells: Escherichia coli BL21 (DE3)
Experimental: As proposed in the theoretical part, the photo-CIDNP traces were recorded in the presence and absence of PIN1. The peak intensity and chemical shifts were analyzed pairwise to identify the hits. […] The reference apo-PIN1 sample was spiked with 1.9 μL of DMSO to compensate for the DMSO that is introduced upon fragment addition, as the fragments are stored in stock solutions of 5 mM 90% DMSO-d6 and 10% D2O.
For the control binding experiments using ligand-induced chemical shift perturbation analysis, standard [^15N, ^1H]-HSQC spectra were measured. […] Processing was done with a shifted cosine window function for both dimensions. […] The spinlock times were set at 10 and 400 ms.

PIN1 [2] = target: T1, PIN1; test: T1ρ relaxation NMR experiment, PIN1; format: binding
Experimental: For comparison, the signal decay during a T1ρ NMR experiment was measured at the same sample conditions as the photo-CIDNP experiments (Table 2). The signal decay between two T1ρ relaxation delays of 10 and 400 ms is measured in the absence and presence of the PIN1 protein. The increase in signal decay is calculated as the ratio of the integral’s ratio, i.e., (Γ400ms/Γ10ms)PL/(Γ400ms/Γ10ms)L. The most affine binders, compounds 1 and 13, show a significant reduction of the T1ρ decay ratio upon PIN1 addition, witnessing an increase in the relaxation decay. […] The signal-to-noise of the T1ρ spectra were ca. 300 for a number of transients of 512, corresponding to a measurement time of 25 min, while the photo-CIDNP experiments provided a signal-to-noise of ca. 100 for a single-scan experiment corresponding to a two second’s experiment. […] The signal-to-noise of the STD NMR experiments[1] was only 25 and 19 for compounds 1 and 13, respectively, after 50 min measurement corresponding to a 512 transient’s experiment.
For the control binding experiments using ligand-induced chemical shift perturbation analysis, standard [^15N, ^1H]-HSQC spectra were measured. The detailed conditions for the 2D experiments acquired at 600 MHz ^1H NMR frequency were the 100 μM ^15N-labeled PDZ2 domain in the absence and presence of equimolar peptide in PDZ2 buffer and at a temperature of 298 K and 50 μM ^15N-labeled PIN1 in the absence and presence of 200 μM ligands in PIN1 buffer and at a temperature of 298 K, respectively. Typically, 220 (t1,max (^15N) = 47.6 ms) × 1024 (t2,max (^1H) = 60.8 ms) complex points, an interscan delay of 0.8 s, and 12 scans per increment were measured. The data was zero–filled to 2048 points in the direct proton dimension and to 256 points in the ^15N–dimension. Processing was done with a shifted cosine window function for both dimensions. […] The spinlock times were set at 10 and 400 ms. The STD experiments were measured at 298 K with 16,384 (tmax (^1H) = 974 ms) complex points and 512 scans per increment. The on-resonance saturation pulse was set at 0 ppm, and the off-resonance saturation pulse was set to 40 ppm with a saturation time of 1 s.

T1 sequence (Q13526 whole entry, the tested form may be a part): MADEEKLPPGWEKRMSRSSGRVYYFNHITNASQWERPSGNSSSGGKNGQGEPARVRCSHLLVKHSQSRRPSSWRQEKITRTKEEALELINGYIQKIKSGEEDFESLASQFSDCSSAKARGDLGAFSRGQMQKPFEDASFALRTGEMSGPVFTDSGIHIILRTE

Structure (SMILES): Cc1cccc(-c2nc(C)c(C(=O)O)[nH]2)c1 [Compound 13, reference compound]
- fragment-induced CSPs in [15N,1H]-HSQC (PIN1 [1]): strong CSPs
- median CSP (PIN1 [1]; median only of signals showing CSP): 0.119
- T1ρ decay ratio (PIN1 [2]; 200 μM ligand, ±20 μM protein, (Γ400ms/Γ10ms)PL/(Γ400ms/Γ10ms)L): 0.45
- T1ρ decay ratio (PIN1 [2]; low concentration, same sample conditions: 20 μM ligand (compound 1: 5 μM), ±2 μM PIN1): 0.76
